Source: PMC7048748, “Anxiolytic Drug FGIN-1-27 Ameliorates Autoimmunity by Metabolic Reprogramming of Pathogenic Th17 Cells” (Scientific Reports, 2020)

How the values were obtained:
Th17 cells = assay: Rescue of IL-17 production by NAC pre-treatment; assay type: cell-based, mouse; conditions: NAC 1 µM pre-treatment, 10 µM FGIN-1-27
Protocol: Figure 5 FGIN-1-27 induces amino acid starvation response (AAR). (a) MA-plot showing shrunken log2 fold-changes of detected genes between the DMSO and FGIN-1-27 RNA-seq samples, ranked by average normalized count. Red dots indicate differentially expressed genes at adjusted p-value <0.05. (b) Transcript levels for the indicated genes after 24 hours of treatment with DMSO or FGIN-1-27 quantified by qPCR. The error bars represent SD. (c) Western blot analysis for phosphorylated eIF2α and ATF4 24 hours after treatment with DMSO or FGIN-1-27 (5 and 10 µM). Data are representative of 3 independent experiments. (d) Amino acids in Th17 cells measured 72 hours after treatment with FGIN-1-27. The error bars represent SD. (e) ROS was measured using cell permeant reagent 2′,7′ –dichlorofluorescin diacetate (DCFDA) at 24 hours following treatment with FGIN-1-27. Filled grey histogram-DMSO, dotted line-FGIN-1-27 (10 µM) and dashed line indicates FGIN-1-27 (5 µM). (f) Dose response plot showing effect of FGIN-1-27 on intracellular IL-17 after pre-treatment with NAC (1 µM). […]
Increased amino acid synthesis and transport is characteristic of the amino acid starvation response (AAR)[20]. […] Induction of ATF4 can be an indication of oxidative stress and we measured reactive oxygen species (ROS) using the cell permeant reagent 2′,7′ –dichlorofluorescin diacetate (DCFDA).

Th17 responses = system: Th17 responses; parameters: method as in PMID 19498172; conditions: activation of the AAR; cited from earlier work

SMILES	rescue of defective IL-17 production (Th17 cells) [%]	Th17 responses (Th17 responses)
CC(=O)N[C@@H](CS)C(=O)O [NAC, N-acetyl cysteine]	14	
O=C(CC1NCCCC1O)Cn1cnc2cc(Br)c(Cl)cc2c1=O (centres unmarked) [halofuginone]		down-regulate Th17 responses
